Where two headings read alike, the source gives them in different places.
Experiments:
[1] = system: NSC-34 motoneuron-like cells; test: MTT cell survival assay of NSC-34 motoneuron-like cells under tunicamycin-induced ER stress; assay type: cell-based, mouse; details: for MTT assay (% sample vs control), Mean: concomitant TN 1 μg/mL, 24 h, C1 = 0.11 mM acamprosate calcium + 4 μM ribavirin, single drugs 0.11 mM acamprosate calcium, 4 μM ribavirin, 10 μM PRE084; for Corrected Response (Response less control 62.956%) / Response (% neuronal cell survival after ER stress): tunicamycin, MTT
Description: For the in vitro studies, we assessed cell survival of the NSC-34 motoneuron-like cells with a conventional MTT-based assay. NSC-34 is a hybrid cell line produced by fusion of neuroblastoma with mouse motoneuron-enriched primary spinal cord cells, which express properties characteristic of MNs, including the generation of action potentials, the presence of specific neurofilaments and acetylcholine signaling. […] Tunicamycin is a power that was dissolved in DMSO to 10 mg/ml final concentration and then diluted in Dulbeco's modified eagle medium (DMEM) medium at the final working solution indicated in figure legends. The rest of drugs, C1, Acamprosate calcium and Ribavirin were dissolved in water and then in DMEM medium at the final working solutions: 0.11 mM Acamprosate calcium (ACA), 4 μM Ribavirin (RIB) alone or in C1, at a final volume of 100 μI for MTT assays.
We assessed the neuroprotective effect of C1 (acamprosate calcium 0.11 mM+ribavirin 4 μM in 100 μl final volume) when added simultaneous to tunicamycin (TN) in the culture medium. We evaluated cell survival 24 h after the addition of toxin and therapeutic drugs performing an MTT conventional test.
In order to analyze the existence of possible additive neuroprotective effect between drugs, we determined the dose-effect relations of each individual drug (Acamprosate calcium 0.11 mM or Ribavirin 4 μM, both in 100 μI final volume) compared to equivalent doses for C1 (acamprosate calcium 0.11 mM+ribavirin 4 μM in 100 μI final volume).

[2] = system: motoneurons (MNs); test: Rat model of peripheral nerve root avulsion (RA model): MN counts and immunohistochemistry at L4-L5 spinal cord; assay type: in vivo; details: for effect on the neuroprotective effect (MN survival) exerted by C1: RA-injured animals treated with C1 concomitantly
Excerpt: For in vivo studies, a pre-clinical rat model of peripheral nerve root avulsion (RA model) was generated as previously described (see Penas C Cytoskeletal and activity-related changes in spinal motoneurons after root avulsion. Journal of Neurotrauma, 2009). Briefly, a midline skin incision was made at the level of the iliac crest, the right sciatic nerve was identified and the L4 and L5 spinal nerves were separated. A moderate traction was applied to produce extravertebral nerve root avulsion, leading to a retrograde degeneration of around 80% of the injured MNs within a month. The left roots were kept intact as control sham. We intratechally administered the vehicle (artificial cerebrospinal fluid (aCSF) [NaCl (124 mM), KCl (3 mM), NaHCO3 (26 mM), CaCl2/2H2O (2 mM), MgSO4/7H2O (1 mM), KH2PO4 (1.25 mM) and D-Glucose (10 mM)] or the positive control drug for neuroprotection (PRE084, 1-phenylcyclohexanecarboxylate hydrochloride, 1.7 μg/kg/day), C1 (Acamprosate calcium 96 μg/Kg/day (equivalent to 86.9 μg/Kg/day acamprosate free acid)+Ribavirin 0.48 μg/Kg/day) or acamprosate calcium (96 μg/Kg/day) (equivalent to 86.9 μg/Kg/day acamprosate free acid) alone and ribavirin (0.48 μg/Kg/day) alone. For this purpose, we used a programmable micro-infusion pump system (iPrecio, Primetech) to continuously perfuse the drugs into the animal CSF during 20 days from the following day after RA. […] experimental animal groups with RA were defined: one was treated with C1, another was treated with Pre084 (positive control), another was treated with Acamprosate calcium alone (A), another was treated with Ribavirin alone (B), another was treated with vehicle alone, another was left untreated (control). […] Images from microscope were digitally captured and analyzed using several plugins of the ImageJ Software.

[3] = system: motoneurons (MNs); details: cited from earlier work
[4] = ribavirin alone, Dose DB 0.1X (1X = 4 μM)
[5] = ribavirin alone, Dose DB 0.2X (1X = 4 μM)
[6] = ribavirin alone, Dose DB 0.5X (1X = 4 μM)
[7] = ribavirin alone, Dose DB 1X (4 μM)
[8] = acamprosate calcium alone, Dose DA 0.1X (1X = 0.11 mM)
[9] = acamprosate calcium alone, Dose DA 0.2X (1X = 0.11 mM)
[10] = acamprosate calcium alone, Dose DA 0.5X (1X = 0.11 mM)
[11] = acamprosate calcium alone, Dose DA 1X (0.11 mM)

Compound: NC(=O)c1ncn([C@@H]2O[C@H](CO)[C@@H](O)[C@H]2O)n1 [ribavirin, 1-[(2R,3R,4S,5R)-3,4-dihydroxy-5-(hydroxymethyl)oxolan-2-yl]-1H-1,2,4-triazole-3-carboxamide]
- MTT assay (% sample vs control), Mean ([1]; NSC-34 cells): 68.07%
- Corrected Response (Response less control 62.956%) [1, 4]: 5.71%
- Response (% neuronal cell survival after ER stress) [1, 4]: 68.662%
- Corrected Response (Response less control 62.956%) [1, 5]: 7.93%
- Response (% neuronal cell survival after ER stress) [1, 5]: 70.886%
- Corrected Response (Response less control 62.956%) [1, 6]: 2.72%
- Response (% neuronal cell survival after ER stress) [1, 6]: 65.676%
- Corrected Response (Response less control 62.956%) [1, 7]: 5.69%
- Response (% neuronal cell survival after ER stress) [1, 7]: 68.647%

Compound: NC(=O)C1CCCc2c1[nH]c1ccc(Cl)cc21 (centres unmarked) [EX-527, 6-chloro-2,3,4,9-tetrahydro-1H-carbazole-1-carboxamide]
- effect on the neuroprotective effect (MN survival) exerted by C1 [2]: abolished the neuroprotective effect

Compound: CC(=O)NCCCS(=O)(=O)O [acamprosate calcium, 3-acetamidopropane-1-sulfonic acid]
- MTT assay (% sample vs control), Mean ([1]; NSC-34 cells): 65.80%
- Corrected Response (Response less control 62.956%) [1, 8]: 3.52%
- Response (% neuronal cell survival after ER stress) [1, 8]: 66.475%
- Corrected Response (Response less control 62.956%) [1, 9]: 2.96%
- Response (% neuronal cell survival after ER stress) [1, 9]: 65.918%
- Corrected Response (Response less control 62.956%) [1, 10]: 3.89%
- Response (% neuronal cell survival after ER stress) [1, 10]: 66.849%
- Corrected Response (Response less control 62.956%) [1, 11]: 2.46%
- Response (% neuronal cell survival after ER stress) [1, 11]: 65.417%

Compound: Nc1nc2ccc(OC(F)(F)F)cc2s1 [riluzole]
- neuroprotective effect ([3]; model of spinal root avulsion with reimplantation): maximum observed effect of neuroprotection
- neuroprotective effect ([3]; models of root avulsion without reimplantation (Chew 2014)): no neuroprotective effect

Compound: O=C(OCCN1CCOCC1)C1(c2ccccc2)CCCCC1 [PRE084, 2-(4-Morpholinethyl)1 Phenylcyclohexanecarboxylate]
- neuroprotection against TN stress compared with C1 ([1]; NSC-34 cells, TN 1 μg/mL, 10 μM PRE084, MTT): did not neuroprotect the cells as efficiently as C1
- MTT assay (% sample vs control), Mean ([1]; NSC-34 cells): 68.81%
- MN survival compared to the vehicle group ([2]; root avulsed rats, intrathecal infusion 20 days, 21 days post-injury, C1 = 96 μg/Kg/day acamprosate calcium + 0.48 μg/Kg/day ribavirin, PRE084 1.7 μg/kg/day): significantly different to the vehicle group
- induction of MN survival ([3]; spinal root avulsion (Penas et al. 2011)): 50-60%

Compound: NCCCCNCCCN [spermidine]
- effect on the neuroprotective effect (MN survival) exerted by C1 [2]: did maintain it
